Measured values from PubChem BioAssay AID1963976 (Molecular Pharmacology Branch, DTP, NCI, 2024).

Tested on: 435261-313-R-J1-PDC tumor spheroid viability
Experiment: Anticancer human tumor 435261-313-R-J1-PDC patient-derived colon adenocarcinoma cell line growth inhibition [PI3K]
Conditions: spheroids with HUVEC and MSC; for IC50: curve of first compound; for viability, T/C: stronger effect = lower value
How it was run: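 Multi-cell spheroids combine tumor cells with HUVEC and human MSCs, treated with targeted agents alone or with inavolisib, alpelisib, duvelisib or copanlisib. Concentrations fall in half-log steps from at or near clinical Cmax, or from 10 microM where Cmax is unknown; viability read-out.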

[1] = second compound 0.00316 µM, first compound 0.0316 µM
[2] = second compound 0.00316 µM, first compound 0.1 µM
[3] = second compound 0.00316 µM, first compound 0.316 µM
[4] = second compound 0.00316 µM, first compound 1 µM
[5] = second compound 0.01 µM, first compound 0.0316 µM
[6] = second compound 0.01 µM, first compound 0.1 µM
[7] = second compound 0.01 µM, first compound 0.316 µM
[8] = second compound 0.01 µM, first compound 1 µM
[9] = second compound 0.0316 µM, first compound 0.0316 µM
[10] = second compound 0.0316 µM, first compound 0.1 µM
[11] = second compound 0.0316 µM, first compound 0.316 µM
[12] = second compound 0.0316 µM, first compound 1 µM
[13] = second compound 0.1 µM, first compound 0.0316 µM
[14] = second compound 0.1 µM, first compound 0.1 µM
[15] = second compound 0.1 µM, first compound 0.316 µM
[16] = second compound 0.1 µM, first compound 1 µM
[17] = second compound 0.316 µM, first compound 0.0316 µM
[18] = second compound 0.316 µM, first compound 0.1 µM
[19] = second compound 0.316 µM, first compound 0.316 µM
[20] = second compound 0.316 µM, first compound 1 µM
[21] = second compound 1 µM, first compound 0.0316 µM
[22] = second compound 1 µM, first compound 0.1 µM
[23] = second compound 1 µM, first compound 0.316 µM
[24] = second compound 1 µM, first compound 1 µM
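Note: spheroids exposed to compounds for 7 days.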

For `CC(C)NCC(C(=O)N1CCN(c2ncnc3c2C(C)CC3O)CC1)c1ccc(Cl)cc1` (centres undefined) + COc1c(OCCCN2CCOCC2)ccc2c3n(c(=NC(=O)c4cnc(N)nc4)nc12)CCN3, the IC50 (second compound 0.00316 µM) was 765 nM, the IC50 (second compound 0.01 µM) was 664 nM and the IC50 (second compound 0.0316 µM) was under 31.6 nM. The IC50 (second compound 0.1 µM) was under 31.6 nM, the IC50 (second compound 0.316 µM) was under 31.6 nM and the IC50 (second compound 1 µM) was under 31.6 nM. For the same compound, the viability, T/C [1] was 77.5%, the viability, T/C [2] was 57.4% and the viability, T/C [3] was 67.4%. For the same compound, the viability, T/C [4] was 45%, the viability, T/C (second compound 0.00316 µM, first compound 3.16 µM) was 25.9% and the viability, T/C (second compound 0.00316 µM, first compound 10 µM) was 18.1%. It also gave a viability, T/C [5] of 35.5%, a viability, T/C [6] of 72.5% and a viability, T/C [7] of 53.8%. The viability, T/C [8] was 45.8%, the viability, T/C (second compound 0.01 µM, first compound 3.16 µM) was 37.2% and the viability, T/C (second compound 0.01 µM, first compound 10 µM) was 22.3%. It also gave a viability, T/C [9] of 29%, a viability, T/C [10] of 24.9% and a viability, T/C [11] of 40.3%. For the same compound, the viability, T/C [12] was 17.9%, the viability, T/C (second compound 0.0316 µM, first compound 3.16 µM) was 17.2% and the viability, T/C (second compound 0.0316 µM, first compound 10 µM) was 13.7%. The viability, T/C [13] was 16.9%, the viability, T/C [14] was 13.9% and the viability, T/C [15] was 18.2%. The viability, T/C [16] was 14.3%, the viability, T/C (second compound 0.1 µM, first compound 3.16 µM) was 14.1% and the viability, T/C (second compound 0.1 µM, first compound 10 µM) was 8.48%. For the same compound, the viability, T/C [17] was 8.02%, the viability, T/C [18] was 10% and the viability, T/C [19] was 8.48%. The viability, T/C [20] was 7.53%, the viability, T/C (second compound 0.316 µM, first compound 3.16 µM) was 6.85% and the viability, T/C (second compound 0.316 µM, first compound 10 µM) was 3.75%. It also gave a viability, T/C [21] of 3.46%, a viability, T/C [22] of 4.26% and a viability, T/C [23] of 3.88%. The viability, T/C [24] was 3.78%, the viability, T/C (second compound 1 µM, first compound 3.16 µM) was 3.18% and the viability, T/C (second compound 1 µM, first compound 10 µM) was 1.67%.
Compound `CCN1CCN(Cc2ccc(Nc3ncc(F)c(-c4cc(F)c5nc(C)n(C(C)C)c5c4)n3)nc2)CC1` + COc1c(OCCCN2CCOCC2)ccc2c3n(c(=NC(=O)c4cnc(N)nc4)nc12)CCN3 has an IC50 (second compound 0.00316 µM) of 52.9 nM, an IC50 (second compound 0.01 µM) of under 3.16 nM and an IC50 (second compound 0.0316 µM) of under 3.16 nM. For the same compound, the IC50 (second compound 0.1 µM) was under 3.16 nM, the IC50 (second compound 0.316 µM) was under 3.16 nM and the IC50 (second compound 1 µM) was under 3.16 nM. It also gave a viability, T/C (second compound 0.00316 µM, first compound 0.00316 µM) of 49.3%, a viability, T/C (second compound 0.00316 µM, first compound 0.01 µM) of 57.2% and a viability, T/C [1] of 65.2%. The viability, T/C [2] was 35.8%, the viability, T/C [3] was 40.6% and the viability, T/C [4] was 46.6%. It also gave a viability, T/C (second compound 0.01 µM, first compound 0.00316 µM) of 42.3%, a viability, T/C (second compound 0.01 µM, first compound 0.01 µM) of 39.8% and a viability, T/C [5] of 35.4%. It also gave a viability, T/C [6] of 33%, a viability, T/C [7] of 32.7% and a viability, T/C [8] of 42.5%. For the same compound, the viability, T/C (second compound 0.0316 µM, first compound 0.00316 µM) was 28.9%, the viability, T/C (second compound 0.0316 µM, first compound 0.01 µM) was 22.6% and the viability, T/C [9] was 24.1%. The viability, T/C [10] was 23.3%, the viability, T/C [11] was 26.6% and the viability, T/C [12] was 25.2%. The viability, T/C (second compound 0.1 µM, first compound 0.00316 µM) was 15.2%, the viability, T/C (second compound 0.1 µM, first compound 0.01 µM) was 15.4% and the viability, T/C [13] was 18.1%. The viability, T/C [14] was 13.7%, the viability, T/C [15] was 15.6% and the viability, T/C [16] was 16.7%. For the same compound, the viability, T/C (second compound 0.316 µM, first compound 0.00316 µM) was 8.47%, the viability, T/C (second compound 0.316 µM, first compound 0.01 µM) was 8.29% and the viability, T/C [17] was 8.24%. It also gave a viability, T/C [18] of 6.93%, a viability, T/C [19] of 8.43% and a viability, T/C [20] of 9.13%. It also gave a viability, T/C (second compound 1 µM, first compound 0.00316 µM) of 4.09%, a viability, T/C (second compound 1 µM, first compound 0.01 µM) of 3.66% and a viability, T/C [21] of 3.83%. It also gave a viability, T/C [22] of 2.75%, a viability, T/C [23] of 3.7% and a viability, T/C [24] of 3.49%.
